{"source": "patent US11786839B2", "about": "“Eutectic extract formation and purification” (Givaudan France Naturals SAS, priority 2018, dated 2023)", "key": {"[1]": {"experiment": "Oxygen radical absorbance capacity (ORAC) method", "method": "Test of Physico-Chemical Efficacy as Antioxidant—Oxygen Radical Absorbance Capacity (ORAC) Method\nPhosphate buffer solutions (pH 7.2) containing the desired concentrations of eutectic extracts were prepared. Fifty millilitres of each solution were transferred by multi-channel pipette into a Fluotrac 96-well microplate (Greiner).\nTo improve the repeatability, the microplate was pre-heated at 37° C. under orbital stirring at 1,200 rpm in a temperature-controlled thermoshaker (PHMT series, Grant Instruments Ltd, Shepreth, England) for 20 minutes.\n50 μL of AAPH solution in freshly prepared phosphate buffer solution was then added using a multi-channel pipette.\nA drop in fluorescence to 515 nm (λex: 490 nm) was immediately recorded. Measurements were then taken every minute for 2 hours at 37±0.1° C. with 5 seconds of stirring before each measurement using a microplate reader."}, "[2]": {"experiment": "Conjugated autoxidizable triene (CAT) assay", "format": "biochemical", "description": "Antioxidant solutions were prepared as follows: a methanol solution of eutectic extract or Trolox (reference) was prepared at the desired concentration. […] Various volumes of this solution (25, 50, 75, and 100 μL) were then added to 24.9 mL of phosphate buffer solution (PBS), pH 7.2, and then filled to 25.0 mL with pure methanol (75, 50, 25, and 0 μL, respectively). In this way, all buffered solutions of eutectic extract contained the same methanol volume (100 μL), which minimizes any possible bias among samples. Samples of these solutions (50 μL/well) were transferred using a multichannel micropipet into UV-Star 96-well microplate (Greiner, Frickenhausen, Germany) (absorbance at 273 nm=0.03). The microplate was then prewarmed and stirred in a thermostated shaker (PHMT Grant Instruments, […], England) at 37° C. for 5 min at 1,200 rpm. […] Each well was then filled with 100 μL of this tung oil-in-PBS emulsion. To improve repeatability, the microplate was then immediately pre-warmed and shaken, sheltered from light, in a thermostated shaker (PHMT Grant Instruments) at 37° C. for 1 min at 1,200 rpm. Fifty microliters of a freshly prepared AAPH solution in PBS (4 mM) was added with a multi-channel micropipet. […] The progress of reactions was immediately monitored by recording the decrease in absorbance at 273 nm. […] Each experiment was performed in triplicate (three wells), and results were expressed as the mean of CAT value (see below) ±SD. Similarly, to the ORAC assay, the antioxidant value of a sample was calculated through the difference between the area under the curve of this sample and that of the blank (without eutectic extract). The result of this operation gave the net area under the curve (AUC) which was then plotted on a graph as a function of the concentration. Only the linear part of the curve was taken into account to calculate the slope which was then divided by the slope of the Trolox (standard) calculated in the same conditions and analyzed on the same microplate. As such, CAT values were expressed as μmol Trolox equivalent/g eutectic extract."}, "[3]": {"details": "Table 1, fresh rosemary eutectic extracts"}, "[4]": {"details": "Table 2, dried rosemary powder eutectic extracts"}}}
{"smiles": "CC[N+](CC)(CC)Cc1ccccc1.[Cl-]", "note": "[BTEAC alone, benzyltriethyl ammonium chloride]", "values": [{"measurement": "ORAC value", "setting": "[1]; [3]", "value": 2.8, "unit": "μmol TE/g"}, {"measurement": "ORAC value", "setting": "[1]; [4]", "value": 2.8, "unit": "μmol TE/g"}, {"measurement": "CAT value", "setting": "[2]; [3]", "value": 0.7, "unit": "μmol TE/g"}, {"measurement": "CAT value", "setting": "[2]; [4]", "value": 0.7, "unit": "μmol TE/g"}]}
{"smiles": "CCCCn1cc[n+](C)c1.[Cl-]", "note": "[BmimCl alone, 1-butyl-3-methylimidazolium chloride]", "values": [{"measurement": "ORAC value", "setting": "[1]; [4]", "value": 1.1, "unit": "μmol TE/g"}, {"measurement": "CAT value", "setting": "[2]; [4]", "value": 0.24, "unit": "μmol TE/g"}]}
{"smiles": "C[N+](C)(C)CCO.[Cl-]", "note": "[ChCl alone, choline chloride]", "values": [{"measurement": "ORAC value", "setting": "[1]; [3]", "value": 0.3, "unit": "μmol TE/g"}, {"measurement": "ORAC value", "setting": "[1]; [4]", "value": 0.3, "unit": "μmol TE/g"}, {"measurement": "CAT value", "setting": "[2]; [3]", "value": 0, "unit": "μmol TE/g"}, {"measurement": "CAT value", "setting": "[2]; [4]", "value": 0, "unit": "μmol TE/g"}]}
{"smiles": "CCCCCCCC/C=C\\CCCCCCCC(=O)O", "note": "[oleic acid]", "values": [{"measurement": "ORAC method result in words", "setting": "[1]; pure substance", "value": "positive value, although a modest one"}]}
